Assays:
Assay in all cases: Bliss excess, mean over the matrix (fraction); higher = more synergy
[1] = tested on: NCI-H1975 (Lung Adenocarcinoma)
Procedure, shortened: (§1)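 Cell lines in DMEM/F12 or RPMI with 10% FBS were plated in 1536-well plates, held 24 hours at 37°C, 5% CO2, then given two-drug dose matrices for 72 hours (DMSO typically 0.2%). Viability was read by CellTiter-Glo 2.0 luminescence and scaled as inhibition from 0 (vehicle wells) to 1 (blank wells). Combination Emax is the second-highest inhibition in the matrix; Bliss excess is observed combination effect minus expected EA + EB − EA·EB, EA and EB being single-agent effects.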

[2] = tested on: NTERA-2-cl-D1 (Other Solid Carcinomas)
Procedure, shortened: as §1

[3] = tested on: SCC90 (Head and Neck Carcinoma)
Procedure, shortened: as §1

[4] = tested on: COR-L105 (Lung Adenocarcinoma)
Procedure, shortened: as §1

[5] = tested on: SW1463 (Colorectal Carcinoma)
Procedure, shortened: as §1

[6] = tested on: MG-63 (Osteosarcoma)
Procedure, shortened: as §1

[7] = tested on: JURL-MK1 (Chronic Myelogenous Leukemia)
Procedure, shortened: as §1

[8] = tested on: C2BBe1 (Colorectal Carcinoma)
Procedure, shortened: as §1

[9] = tested on: HT-1197 (Bladder Carcinoma)
Procedure, shortened: as §1

[10] = tested on: RS4-11 (B-Lymphoblastic Leukemia)
Procedure, shortened: as §1

[11] = tested on: GCIY (Gastric Carcinoma)
Procedure, shortened: as §1

[12] = tested on: MRK-nu-1 (Breast Carcinoma)
Procedure, shortened: as §1

[13] = tested on: TK (B-Cell Non-Hodgkin's Lymphoma)
Procedure, shortened: as §1

[14] = tested on: NCI-H1048 (Small Cell Lung Carcinoma)
Procedure, shortened: as §1

[15] = tested on: L-363 (Plasma Cell Myeloma)
Procedure, shortened: as §1

[16] = tested on: NCI-H835 (Other Solid Carcinomas)
Procedure, shortened: as §1

SMILES	Bliss excess [1]	Bliss excess [2]	Bliss excess [3]	Bliss excess [4]	Bliss excess [5]	Bliss excess [6]	Bliss excess [7]	Bliss excess [8]	Bliss excess [9]	Bliss excess [10]	Bliss excess [11]	Bliss excess [12]	Bliss excess [13]	Bliss excess [14]	Bliss excess [15]	Bliss excess [16]
NC1(C(=O)N[C@@H](CCO)c2ccc(Cl)cc2)CCN(c2ncnc3[nH]ccc23)CC1 [Capivasertib] + C[C@@H]1COCCN1C2=NC(=NC(=C2)C3(CC3)[S@](=N)(=O)C)C4=C5C=CNC5=NC=C4 [AZD6738] (first compound max 10 µM, 7x7, partner max 10 µM)	-0.0576	-0.0258	-0.0541	-0.034	-0.101	-0.0524	0.0117	-0.0722	-0.0491	-0.0276	-0.128	0.0032	-0.0045	-0.0204	-0.0201	-0.072
Cc1nc(-c2cn3c(n2)-c2ccc(-c4cnn(C(C)(C)C(N)=O)c4)cc2OCC3)n(C(C)C)n1 [Taselisib] + O=C(Nc1ccc2[nH]nc(-c3ccncc3)c2c1)[C@@H]1CCN(CC(=O)N2CCN(c3ccc(-c4ncccn4)cc3)CC2)C1 [SCH772984] (first compound max 10 µM, 7x7, partner max 5 µM)		-0.0322		0.052	0.0102	-0.0764					-0.0131	0.0385			0.176	0.0323
CN(CCO)CC[C@H](CSc1ccccc1)Nc1ccc(S(=O)(=O)NC(=O)c2ccc(N3CCC([C@@H](O)c4ccccc4-c4ccc(Cl)cc4)CC3)cc2)cc1S(=O)(=O)C(F)(F)F [AZD4320] + CS(=O)(=O)CCNCc1ccc(-c2ccc3ncnc(Nc4ccc(OCc5cccc(F)c5)c(Cl)c4)c3c2)o1 [Lapatinib] (first compound max 1 µM, 7x7, partner max 10 µM)		-0.026		-0.0212	0.105	-0.0176					0.0352	-0.0167			0.0082	0.0449
CS(=O)(=O)CCNCc1ccc(-c2ccc3ncnc(Nc4ccc(OCc5cccc(F)c5)c(Cl)c4)c3c2)o1 [Lapatinib] + Cn1cnc2c(F)c(Nc3ccc(Br)cc3Cl)c(C(=O)NOCCO)cc21 [Selumetinib] (first compound max 10 µM, 7x7, partner max 10 µM)		-0.0125		0.0224	0.0681	-0.0863					-0.0067	0.0764			-0.0027	-0.0013
Cc1c2c(nn1C)CSCc1cc(n(C)n1)CSc1cc(c3ccccc3c1)OCCCc1c(C(=O)O)n(C)c3c-2c(Cl)ccc13 [AZD5991] + CS(=O)(=O)CCNCc1ccc(-c2ccc3ncnc(Nc4ccc(OCc5cccc(F)c5)c(Cl)c4)c3c2)o1 [Lapatinib] (first compound max 1 µM, 7x7, partner max 10 µM)		-0.0334		-0.0414	0.0331	-0.0352					0.013	0.0112			0.0132	0.019
CS(=O)(=O)CCNCc1ccc(-c2ccc3ncnc(Nc4ccc(OCc5cccc(F)c5)c(Cl)c4)c3c2)o1 [Lapatinib] + NC1(c2ccc(-c3nc4ccn5c(=O)[nH]nc5c4cc3-c3ccccc3)cc2)CCC1 [MK-2206] (first compound max 10 µM, 7x7, partner max 10 µM)		0.0305	0.0358	0.014	0.0833	0.0157					0.0484	0.0505			0.026	0.0357
C=CCn1c(=O)c2cnc(Nc3ccc(N4CCN(C)CC4)cc3)nc2n1-c1cccc(C(C)(C)O)n1 [AZD1775] + CCc1c2c(nc3ccc(O)cc13)-c1cc3c(c(=O)n1C2)COC(=O)[C@]3(O)CC [SN-38] (first compound max 1 µM, partner max 0.3 µM)		0.0011		-0.0262	-0.0287	-0.0239					-0.0431	0.0275			0.0273	-0.0442
C[C@@H](Nc1cc(F)cc(F)c1)c1cc(C(=O)N(C)C)cc2c(=O)cc(N3CCOCC3)oc12 [AZD8186] + CC(=O)c1c(C)c2cnc(Nc3ccc(N4CCNCC4)cn3)nc2n(C2CCCC2)c1=O [Palbociclib] (first compound max 10 µM, 7x7, partner max 10 µM)		0.0104		0.0059	0.101	0.0535					0.0171	0.0696			0.0624	0.0763
C[C@@H](Nc1cc(F)cc(F)c1)c1cc(C(=O)N(C)C)cc2c(=O)cc(N3CCOCC3)oc12 [AZD8186] + C1CN(CCC1(C(=O)N[C@@H](CCO)C2=CC=C(C=C2)Cl)N)C3=NC=NC4=C3C=CN4 [AZD5363] (first compound max 10 µM, 7x7, partner max 10 µM)		-0.0573		0.0189	-0.016	-0.0376					-0.012	-0.0418			-0.0138	-0.0164

From the supplement of paper PMC11061612
